Laboratory results from patent publication US20090047369A1, “Composition Comprising 4-Carbon Dicarboxlic Acids for Improvement of Memory Function” (Eubioslab Co., Ltd, priority 2006, published 2009).

How the values were obtained:
cerebral cortex = conditions: normal persons; Saarma J. et al. 1975; cited from earlier work
Sprague Dawley rats [1] = assay: probe test after Morris water maze learning (platform removed); assay type: in vivo
Procedure: (§1) In the Morris water maze test, each of the test animals was given four swimming trials per session per day for 4-5 days. When the escape latency of the test animal, that is, the time for the test animal to reach a hidden platform 2 cm below the surface of water, became shorter than 10±2 seconds during the repeat of the learning sessions, a probe test was performed after 24 hours one time for 60 seconds without the platform. The probe test was performed by removing the platform from the swimming pool and observing the swimming behavior of the test animals. In the probe test, as measures of spatial working memory, the retention time and movement distance of the test animals in the same area of a quadrant region including the position in which the platform was present during the first learning period were analyzed and compared with those of the control group.
At 5 days, that is, after 24 hours when the escape time for the learned test animals to reach the platform became an average of 10±2 seconds, the platform was removed and a probe test was performed one time. The test results are shown in FIG. 1(b) to analyze an improvement in learning and memory for spatial recognition functions.

Sprague Dawley rats [2] = assay: Morris water maze test (escape time to hidden platform); assay type: in vivo
Procedure: In the Morris water maze test, each of the test animals was given four swimming trials per session per day for 4-5 days. When the escape latency of the test animal, that is, the time for the test animal to reach a hidden platform 2 cm below the surface of water, was shortened to about 10±2 seconds during the repeat of the learning sessions, a probe test was performed after 24 hours one time for 60 seconds without the platform.
In the present invention, the effect of formulated drugs on the improvement of learning and memory for spatial recognition of a normal test animal group (Sprague Dawley rats) was tested by administering the drugs to the test animals orally or through drinking water for 2, 3 or 4 weeks and performing a Morris water maze test at 2, 3 or 4 weeks after the drug administration.
as §1
Starting from 4 weeks of the administration, a Morris water maze test was performed at a given time point daily four times per day for 4 days to analyze the effect of each composition on the improvement of learning and memory for spatial recognition function of the test animals. As the test results are shown in FIG. 1(a) showing the escape time of each group.

ischemia-induced brain = conditions: administered after hypoxia; Ann. Thorac. Surg. 1994; cited from earlier work
[3] = administered for 1 week; Jpn J Psychiatry Neurol 1991; cited from earlier work
[4] = fumaric acid 100 mg/kg with Tween80 100 mg/kg (FA100Tw100 group), drinking water 4 weeks, vs Tw50 control

## O=CCCC(=O)O [SSA, succinic semialdehyde, reference compound]
Cerebral cortex
  excitability of the cerebral cortex: enhances the excitability of the cerebral cortex

## O=C(O)/C=C/C(=O)O [fumaric acid]
Sprague Dawley rats [1]; [4]
  improvement of working memory: significant (p<0.05) effect on the improvement of both learning and working memory
Sprague Dawley rats [2]; [4]
  improvement of learning (escape time): significant (p<0.05) effect on the improvement of both learning and working memory
Sprague Dawley rats [2]; fumaric acid given with Tween80 (FA50Tw50, FA100Tw100 groups) through drinking water 4 weeks, vs Tw50 control
  effect on the improvement of learning and memory: dose-dependent effect on the improvement of learning and memory
ischemia-induced brain
  nerve protective effect: nerve protective effects

## O=C(O)CCC(=O)O [succinic acid]
Sprague Dawley rats [1]; succinic acid 100 mg/kg with Span80 200 mg/kg (SA100Sp200 group), drinking water 3 weeks, vs DW control
  working memory in the probe test: insignificant (P=0.089) improvement in working memory
Sprague Dawley rats [2]; succinic acid 100 mg/kg with Span80 200 mg/kg (SA100Sp200 group), drinking water 3 weeks, session 4, P<0.001 vs DW control, Mann Whitney U test
  learning ability in the Morris water maze test: significant increase in learning ability

## O=C(O)CCC(=O)O [SS, sodium succinate]
Cerebral cortex
  excitability of the cerebral cortex: stabilizes the excitability of the cerebral cortex

## CN(C)CCCN1c2ccccc2CCc2ccccc21 [imipramine]
[3]
  antidepressant effect: significant antidepressant effect
